{"source": "ChEMBL document CHEMBL4431345", "about": "“A fluorescence polarization based assay for the identification and characterization of polymerase inhibitors” (Bioorg Med Chem Lett, 2016)", "key": {"[1]": {"experiment": "Inhibition of Escherichia coli DNA polymerase 1 Klenow fragment preincubated for 15 mins followed by addition of DNA substrate for 60 mins in presence of dNTPS/TAMRA tracer by fluorescence polarization assay"}, "[2]": {"experiment": "Inhibition of Escherichia coli DNA polymerase 1 Klenow fragment preincubated for 15 mins followed by addition of DNA substrate for 60 mins in presence of dNTPS by picoGreen reagent based assay"}}, "data": [{"molecule": "Nc1ncnc2c1ncn2[C@H]1CC[C@@H](COP(=O)(O)OP(=O)(O)OP(=O)(O)O)O1", "note": "[DDA-TRIPHOSPHATE]", "values": [{"measurement": "IC50", "setting": "[1]", "result": 27, "unit": "µM"}, {"measurement": "IC50", "setting": "[2]", "result": 69, "unit": "µM"}]}]}
